Laboratory results published in US8236756B2, “Prodrugs cleavable by CD26” (Consejo Superior de Investigaciones Clentificas (CSIC), priority 2003, dated 2012).

Target: T1, purified CD26 (Homo sapiens, UniProt P27487)
T1 construct: made in house
Assay: Conversion of peptide prodrugs to parent compound by purified CD26 (HPLC)
Format: biochemical
Conditions: for Conversion % to parent compound by purified CD26, 1 h / Conversion % to parent compound by purified CD26, 4 h / Conversion % to parent compound by purified CD26, 24 h: Table 1
Method: To reveal whether CD26 recognizes such synthetic di/tripeptide derivatives of lipophilic nucleoside analogues as a substrate, 50 μM CAM-405 or CAM-431 was exposed to 5.7 mUnits of purified CD26, and the conversion of CAM-405 or CAM-431 to respectively CAM-212 or CAM-403 (Val-NAP-TSAO) was recorded in function of incubation time by HPLC analysis. […] Within the first 10 min of the reaction, at least 20% of CAM-405 had been converted to CAM-212, fifty percent of the TSAO dipeptide derivative was converted to CAM-212 within 30 min of the reaction and ˜67% of CAM-405 was hydrolyse after 60 min. Thus, the reaction rate started already to slow down after the first 10 min of drug exposure (FIG. 2). Most likely, the release of the reaction product Val-Pro dose-dependently feed-back inhibited the CD26-catalysed dipeptidyl-peptidase reaction. […] Thus, in the presence of 50 μM CAM-405, hydrolysis of 50% of CAM-405 to CAM-212 results in the appearance of 25 μM Val-Pro, that is a concentration that (feed-back) inhibits the CD26 reaction by ˜50%. These findings explain why the CD26-catalysed reaction levels-off shortly after the start of the exposure of the drug to CD26. […] Thus, a further level of modulation of the rate of prodrug release can be introduced by choosing a dipeptide moiety that competes for the active site of CD26, until the dipeptide has diffused from the tissue wherein CD26 is present. The inhibitory activity of any dipeptide can be evaluated by the above mentioned assay.
The conversion rate in function of time is given in Table 1 for NAP-TSAO-dipeptides where the dipeptide consists of: Val-Pro, Val-D-Pro, Asp-Pro, Lys-Pro, Tyr-Pro, Gly-Pro, Val-4-hydroxyPro, Gly-3,4-dihydroxyPro, but also Val-Gly, Val-Ala, Val-Leu and Val-Phe. It is clear that the conversion rate to the parent NAP-TSAO differs depending the nature of the dipeptide. Also, when the terminal amine of the dipeptide has been blocked by a lipophilic group (i.e. methyl, Z or Fmoc), the prodrug looses measurable substrate activity for CD26.
The conversion rate in function of time is given in Table 2 for tetrapeptide NAP-TSAO compounds where the tetrapeptide consists of: Val-Pro-Val-Pro [SEQ ID no:6] (CAM 467), Val-Ala-Val-Pro [SEQ ID no:7] (CAM 473) or Lys-Pro-Asp-Pro [SEQ ID no:8] (CAM 477). […] Only traces of dipeptide prodrug (CAM 405) is seen as intermediate in the conversion of the tetrapeptide CAM 473 to NAP-TSAO.
All enzyme activity assays were performed in Eppendorf tubes on a heating block at 37° C. To each tube were added 32 μl CD26 (at a final concentration of 1.5 milliUnits) or 10 μl foetal bovine serum (BS) (final concentration: 2.5% BS in PBS; preheated at 56° C. for 30 min) or 10 μl human serum (HS) (final concentration: 2.5% HS in PBS), 40 μl of appropriate concentrations of inhibitor (Diprotin A) solution in PBS (for the exact concentrations, see the legend to FIG. 5), CAM-405 (the substrate of the reaction) at […] (final concentration) and PBS to reach a total volume of 400 μl. The pH of the reaction mixture was 7.5, which is virtually identical to the physiological pH of plasma. The reaction was started by the addition of the enzyme or serum and carried out at 37° C. After 5 hr, 100 μl reaction mixture was taken from the Eppendorf tube and added to 200 μl cold methanol to precipitate the proteins. After 10 min standing on ice, the contents of the tubes were centrifuged and the supernatants analysed by HPLC on a reverse phase column (RP-8, Merck Laboratories). CAM-405 was separated from CAM-212 (the product of the reaction) by a gradient of 50 mM sodium phosphate+5 mM heptane sulfonic acid pH 3.2 (Buffer A) and acetonitrile (Buffer B) as follows: Buffer A: 98%+2% Buffer B, 2 min; linear gradient to 20% Buffer. […]

[1] = Table 2, purified CD26 1.5 mUnits, 4 h
[2] = Table 2, purified CD26 1.5 mUnits, 24 h
[3] = Table 2, purified CD26 1.5 mUnits, 1 h
[4] = Table 5, purified CD26 1.5 mUnits, 1 h
[5] = Table 5, purified CD26 1.5 mUnits, 4 h
[6] = Table 5, purified CD26 1.5 mUnits, 24 h

T1 sequence (P27487 whole entry): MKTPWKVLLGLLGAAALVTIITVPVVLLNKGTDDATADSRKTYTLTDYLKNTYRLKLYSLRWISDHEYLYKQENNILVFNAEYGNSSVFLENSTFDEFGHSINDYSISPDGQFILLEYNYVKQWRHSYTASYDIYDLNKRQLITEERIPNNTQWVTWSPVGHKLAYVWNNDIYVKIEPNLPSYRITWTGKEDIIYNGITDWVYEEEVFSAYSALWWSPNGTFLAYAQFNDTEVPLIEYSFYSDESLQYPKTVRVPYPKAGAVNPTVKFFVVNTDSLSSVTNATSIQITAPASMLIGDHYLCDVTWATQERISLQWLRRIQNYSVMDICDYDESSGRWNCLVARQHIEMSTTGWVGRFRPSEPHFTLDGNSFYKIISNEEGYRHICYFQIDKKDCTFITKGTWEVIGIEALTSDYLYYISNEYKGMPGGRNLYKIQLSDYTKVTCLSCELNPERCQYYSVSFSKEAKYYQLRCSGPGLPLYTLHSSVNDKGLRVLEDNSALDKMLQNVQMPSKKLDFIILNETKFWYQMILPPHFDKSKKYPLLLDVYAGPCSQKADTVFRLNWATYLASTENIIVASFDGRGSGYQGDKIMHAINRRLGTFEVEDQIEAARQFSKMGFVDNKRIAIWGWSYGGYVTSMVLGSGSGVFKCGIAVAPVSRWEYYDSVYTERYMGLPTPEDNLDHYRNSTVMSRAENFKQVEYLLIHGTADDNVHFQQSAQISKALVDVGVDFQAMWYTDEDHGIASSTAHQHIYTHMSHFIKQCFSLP

SMILES	Conversion % to parent compound by purified CD26, 1 h (purified CD26 1.5 mUnits, 1 h) [%]	Conversion % to parent compound by purified CD26, 4 h (purified CD26 1.5 mUnits, 4 h) [%]	Conversion % to parent compound by purified CD26, 24 h (purified CD26 1.5 mUnits, 24 h) [%]	Conversion / substrate activity with purified CD26, in words	% conversion to parent compound by purified CD26, 4 h [1] [%]	% conversion to parent compound by purified CD26, 24 h [2] [%]	also measured
Cc1cn(C2OC(CO[Si](C)(C)C(C)(C)C)C3(OS(=O)(=O)C=C3N)C2O[Si](C)(C)C(C)(C)C)c(=O)n(CCCNC(=O)[C@@H]2CC(O)CN2C(=O)[C@@H](N)C(C)C)c1=O (stereo partly shown) [CAM-163, H-Val-4HyPro-NAP-TSAO]	4.1	18	53	–	–	–	–
Cc1cn(C2OC(CO[Si](C)(C)C(C)(C)C)C3(OS(=O)(=O)C=C3N)C2O[Si](C)(C)C(C)(C)C)c(=O)n(CCCNC(=O)[C@@H](NC(=O)OCc2ccccc2)C(C)C)c1=O (stereo partly shown) [CAM-404, Z-Val-NAP-TSAO]	0	0	0	–	–	–	–
CNC(C(=O)N1CCCC1C(=O)NC(C(=O)NCCCn1c(=O)c(C)cn(C2OC(CO[Si](C)(C)C(C)(C)C)C3(OS(=O)(=O)C=C3N)C2O[Si](C)(C)C(C)(C)C)c1=O)C(C)C)C(C)C (stereo not drawn) [CAM-407, Me-NH-Val-Pro-Val-NHP-TSAO]	0	0	0	completely lacked substrate activity	–	–	–
Cc1cn(C2OC(CO[Si](C)(C)C(C)(C)C)C3(OS(=O)(=O)C=C3N)C2O[Si](C)(C)C(C)(C)C)c(=O)n(CCCNC(=O)[C@@H]2CCCN2C(=O)[C@@H](N)CC(=O)O)c1=O (stereo partly drawn) [CAM-435, H-Asp-Pro-NAP-TSAO]	–	7.9	30	–	7.9	30	–
Cc1cn(C2OC(CO[Si](C)(C)C(C)(C)C)C3(OS(=O)(=O)C=C3N)C2O[Si](C)(C)C(C)(C)C)c(=O)n(CCCNC(=O)[C@@H]2CCCN2C(=O)[C@@H](N)CCCCN)c1=O (stereo partly drawn) [CAM-437, H-Lys-Pro-NAP-TSAO]	–	85	99	completely removed	85	99	–
Cc1cn(C2OC(CO[Si](C)(C)C(C)(C)C)C3(OS(=O)(=O)C=C3N)C2O[Si](C)(C)C(C)(C)C)c(=O)n(CCCNC(=O)[C@@H]2CCCN2C(=O)[C@@H](N)Cc2ccc(O)cc2)c1=O (stereo partly drawn) [CAM-456, H-Tyr-Pro-NAP-TSAO]	43	66	79	–	–	–	–
Cc1cn(C2OC(CO[Si](C)(C)C(C)(C)C)C3(OS(=O)(=O)C=C3N)C2O[Si](C)(C)C(C)(C)C)c(=O)n(CCCNC(=O)[C@@H]2CCCN2C(=O)CN)c1=O (stereo partly drawn) [CAM-458, H-Gly-Pro-NAP-TSAO]	5	20	58	–	–	–	–
Cc1cn(C2OC(CO[Si](C)(C)C(C)(C)C)C3(OS(=O)(=O)C=C3N)C2O[Si](C)(C)C(C)(C)C)c(=O)n(CCCNC(=O)C2CCCN2C(=O)C(NC(=O)C2CCCN2C(=O)C(NC(=O)OCc2ccccc2)C(C)C)C(C)C)c1=O (stereo not drawn) [CAM-466, Z-Val-Pro-Val-Pro-NAP-TSAO]	–	–	–	–	0	0	% conversion to parent compound by purified CD26, 1 h [3]: 0%
Cc1cn(C2OC(CO[Si](C)(C)C(C)(C)C)C3(OS(=O)(=O)C=C3N)C2O[Si](C)(C)C(C)(C)C)c(=O)n(CCCNC(=O)C2CCCN2C(=O)C(NC(=O)C2CCCN2C(=O)C(N)C(C)C)C(C)C)c1=O (stereo not drawn) [CAM-467, H-Val-Pro-Val-Pro-NAP-TSAO]	–	–	–	quickly converted	86	88	% conversion to parent compound by purified CD26, 1 h [3]: 43%
COc1cccc2c1C(=O)c1c(O)c3c(c(O)c1C2=O)CC(O)(C(=O)CO)CC3OC1CC(NC(=O)C2CCCN2C(=O)C(NC(=O)OCC2c3ccccc3-c3ccccc32)C(C)C)C(O)C(C)O1 (stereo not drawn) [CAM-468, Fmoc-Val-Pro-Doxorubicin]	–	–	–	no conversion	–	–	% conversion to parent compound by purified CD26, 1 h [4]: 0%; % conversion to parent compound by purified CD26, 4 h [5]: 0%; % conversion to parent compound by purified CD26, 24 h [6]: 0%
COc1cccc2c1C(=O)c1c(O)c3c(c(O)c1C2=O)CC(O)(C(=O)CO)CC3OC1CC(NC(=O)C2CCCN2C(=O)C(N)C(C)C)C(O)C(C)O1 (stereo not drawn) [CAM-469, H-Val-Pro-Doxorubicin]	–	–	–	very efficiently converted	–	–	% conversion to parent compound by purified CD26, 1 h [4]: 78%; % conversion to parent compound by purified CD26, 4 h [5]: 95%; % conversion to parent compound by purified CD26, 24 h [6]: 97%
Cc1cn(C2OC(CO[Si](C)(C)C(C)(C)C)C3(OS(=O)(=O)C=C3N)C2O[Si](C)(C)C(C)(C)C)c(=O)n(CCCNC(=O)C2CCCN2C(=O)C(NC(=O)C(C)NC(=O)C(N)C(C)C)C(C)C)c1=O (stereo not drawn) [CAM-473, H-Val-Ala-Val-Pro-NAP-TSAO]	–	–	–	occurs faster than with the Val-Ala-NAP-TSAO	54	70	% conversion to parent compound by purified CD26, 1 h [3]: 12%
CC(C)[C@H](N)C(=O)N1CCC[C@H]1C(=O)Nc1ccc2ncccc2c1 [CAM-475, H-Val-Pro-6-Aminoquinoline]	–	–	–	complete conversion within 1 hr	–	–	% conversion to parent compound by purified CD26, 1 h [4]: 99%; % conversion to parent compound by purified CD26, 4 h [5]: 100%; % conversion to parent compound by purified CD26, 24 h [6]: 100%
Cc1cn(C2OC(CO[Si](C)(C)C(C)(C)C)C3(OS(=O)(=O)C=C3N)C2O[Si](C)(C)C(C)(C)C)c(=O)n(CCCNC(=O)C2CCCN2C(=O)C(CC(=O)O)NC(=O)C2CCCN2C(=O)C(N)CCCCN)c1=O (stereo not drawn) [CAM-477, H-Lys-Pro-Asp-Pro-NAP-TSAO]	–	–	–	clearly occurs in two steps	6.0	26	% conversion to parent compound by purified CD26, 1 h [3]: 2.1%; % conversion to dipeptide intermediate by purified CD26, 1 h (Table 2 footnote a, purified CD26 1.5 mUnits, 1 h): 88%; % conversion to dipeptide intermediate by purified CD26, 4 h (Table 2 footnote a, purified CD26 1.5 mUnits, 4 h): 86%; % conversion to dipeptide intermediate by purified CD26, 24 h (Table 2 footnote a, purified CD26 1.5 mUnits, 24 h): 74%
